# Measured values as given in US6596863B2, “Medical composition containing nitroetheneamine Derivative or salt there of as active constituent” (Ishihara Sangyo Kaisha, Ltd., priority 1998, dated 2003).
# Like-named read-outs stand apart in the source and are kept apart here.
# Columns and labels:
# [1] = biological target: T1, human MMP-9 (gelatinase B) (Homo sapiens, UniProt P14780); assay: Inhibition activity against human MMP-9 (gelatinase B), fluorescent peptide substrate; format: biochemical
# T1 construct: endogenous in cells; host or cells: HT1080 human fibrosarcoma cells (ATCC CCL-121), PMA-stimulated; enzyme purified from the culture supernatant
# T1 sequence (P14780 107-707 limits assumed): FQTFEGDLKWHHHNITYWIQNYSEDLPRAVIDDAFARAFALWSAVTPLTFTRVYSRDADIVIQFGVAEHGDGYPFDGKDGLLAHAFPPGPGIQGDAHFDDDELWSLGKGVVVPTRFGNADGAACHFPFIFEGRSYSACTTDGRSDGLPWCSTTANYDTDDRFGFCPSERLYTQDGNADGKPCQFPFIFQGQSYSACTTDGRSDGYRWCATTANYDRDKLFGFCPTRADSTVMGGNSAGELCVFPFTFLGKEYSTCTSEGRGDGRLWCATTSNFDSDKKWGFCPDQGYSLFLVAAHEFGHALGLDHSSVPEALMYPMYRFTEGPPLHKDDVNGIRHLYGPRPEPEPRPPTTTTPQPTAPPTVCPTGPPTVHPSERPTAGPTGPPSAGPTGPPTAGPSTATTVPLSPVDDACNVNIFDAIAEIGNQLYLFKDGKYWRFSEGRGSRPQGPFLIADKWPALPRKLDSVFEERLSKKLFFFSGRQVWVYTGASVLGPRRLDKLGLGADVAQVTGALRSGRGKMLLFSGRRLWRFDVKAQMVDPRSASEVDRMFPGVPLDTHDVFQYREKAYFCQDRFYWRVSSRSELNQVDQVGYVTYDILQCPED
# Method: Human MMP-9 (gelatinase B) was purified by the following method from a culture supernatant of HT1080 cells (human fibrosarcoma).
# 2.5×10^6 HT1080 cells (ATCC CCL-121, purchased from Dainippon Seiyaku) were inoculated to a tissue culture dish (Code No. 3020-100, manufactured by Iwaki Glass Co., Ltd.) having a diameter of 10 cm and containing 10 ml of Dulbecco's Modified Eagle Medium (DME, No. D-5648, manufactured by Sigma Co.) containing 10% fetal bovine serum (FBS: REHATUIN™, Code No. 1020-90, manufactured by Intergen Co.) and cultured for 72 hours at 37° C. in an atmosphere comprising 5% of CO2 and 95% of air (Carbon Dioxide Incubator LNA-122D Model, manufactured by Tabai Co.). Then, the medium was changed to 10 ml of a DME culture medium containing no FBS, and phorbol 12-myristate 13-acetate (PMA, code No. 163-114851, manufactured by Wako Pure Chemical Industries, Ltd.) was added so that the final concentration became 10 ng/ml. Under the same conditions, the culturing was carried out for further 20 hours, whereupon the culture supernatant was collected and subjected to cool centrifugation at 4° C. for 5 minutes (cool centrifugal separator, manufactured by Hitachi) to remove cell fragments.
# The pH of a conditioned medium (50 ml) containing MMP-9, thus prepared, was adjusted to 8.0 with 0.2N NaOH. […] Namely, the above-mentioned conditioned medium was passed through DEAE-Sephacel (manufactured by Pharmacia, gel volume: about 35 ml) preliminarily equilibrated with 50 mM Tris-HCl, pH 8.0 (A buffer), and a non-adsorption fraction was collected. Then, it was added to Dye Matrix Gel Green A (manufactured by Amicon Co., gel volume: about 6 ml) preliminarily equilibrated with 50 mM Tris-HCl, pH 7.5/10 MM CaCl2/0.05% Brij 35/0.02% NaN3 (B buffer) and thoroughly washed with the same buffer, whereupon the adsorbed enzyme was eluted with a 1M NaCl-containing B buffer. About 7.5 ml of the eluted fraction was diluted twice with the B buffer and added to Gelatin-Sepharose 4B (manufactured by Pharmacia, gel volume: about 6 ml) preliminarily equilibrated with a 0.5 M NaCl-containing B buffer. It was thoroughly washed with a 0.5M NaCl-containing B buffer, and eluted with the B buffer containing 10% of dimethylsulfoxide (DMSO) and 0.5 M of NaCl. 5.5 ml of the eluted fraction was dialyzed against a 0.1 M NaCl-containing B buffer to obtain 5.2 ml of a purified enzyme solution. The purified MMP-9 standard product was confirmed to have a single band of 92 kDa by a protein staining by SDS electrophoresis, and further, it was confirmed to have an adequate gelatin decomposing activity by gelatinzymography (carried out in accordance with a method by Howard E. W. et al; Journal Biological Chemistry, Vol. 266, 13064-13069, 1991) and to have an adequate substrate decomposing activity by the after-mentioned measurement employing a fluorescent peptide substrate specific to MMP.
# The inhibition activity against human MMP-9 was measured by the following method in accordance with the method by C. G. Knight et al (FEBS Letters, Vol, 296, 263-266, 1992) employing a fluorescent peptide substrate (7-methoxycoumarin-4-yl)Acetyl-Pro-Leu-Gly-Leu-(3-[2,4-dinitrophenyl]—Ala—Arg-NH2, Code 3163-VC, manufactured by Peptide Institute, Inc.
# Further, as the case requires, commercially available human MMP-9 purified enzyme (No. YU-18003, manufactured by Kabushiki Kaisha Yagai Chuo Kenkyusho; used in a final concentration of from 0.0125 to 0.025 unit/ml, No. CC079, manufactured by Chemicon International, Inc.; used in a final concentration of 0.2 μg/ml) was used for the tests. […]
# [2] = compounds of the formula (I), 1st measurement, read-out: MMP-9 inhibition activities IC50, 1st
# [3] = compounds of the formula (I), 2nd measurement, read-out: MMP-9 inhibition activities IC50, 2nd
# [4] = compounds of the formula (I), average of 1st and 2nd (or single measurement), read-out: MMP-9 inhibition activities IC50, Average
# [5] = intermediates, compounds of the formula (IV), 1st measurement, read-out: MMP-9 inhibition activities IC50, 1st
# [6] = intermediates, compounds of the formula (IV), 2nd measurement, read-out: MMP-9 inhibition activities IC50, 2nd
# [7] = intermediates, compounds of the formula (IV), average of 1st and 2nd (or single measurement), read-out: MMP-9 inhibition activities IC50, Average
SMILES,"IC50 [1, 2] [µM]","IC50 [1, 3] [µM]","IC50 [1, 4] [µM]",melting point,"IC50 [1, 5] [µM]","IC50 [1, 6] [µM]","IC50 [1, 7] [µM]"
CNC(=C[N+](=O)[O-])NNc1cc(C(F)(F)F)cc(C)n1 [compound 131],2,3,2.5,165 °C (dec.),–,–,–
CNC(=C[N+](=O)[O-])NNc1cc(C(F)(F)F)cc(OCCCc2cccnc2)n1 [compound 119],28,23.4,25.7,149 °C (dec.),–,–,–
CNC(=C[N+](=O)[O-])NN=C(C)C [compound 25],21.9,30,26,136 °C,–,–,–
CCOC(=O)c1ccc(NC(=C[N+](=O)[O-])SC)cc1 [Intermediate 50],–,–,–,116 to 123 °C,33.9,25.3,29.6
CSc1ccc(NC(=C[N+](=O)[O-])NN)cc1 [compound 72],40.8,41.5,41.2,177 °C (dec.),–,–,–
CNC(=C[N+](=O)[O-])NNc1nc(OC)cc(OC)n1 [compound 105],14.2,17,15.6,166 to 167 °C (dec.),–,–,–
CNC(=C[N+](=O)[O-])NNc1cc(C(F)(F)F)cc(OCc2cccnc2)n1 [compound 123],13.9,12.4,13.2,131 °C (dec.),–,–,–
NNC(=C[N+](=O)[O-])NCc1cccc(C(F)(F)F)c1 [compound 77],41.4,35.2,38.3,155 °C,–,–,–
CNC(=C[N+](=O)[O-])NNc1cc(C(F)(F)F)cc(OCc2ccccn2)n1 [compound 122],12.6,16.3,14.5,170 °C (dec.),–,–,–
CSC(=C[N+](=O)[O-])NS(=O)(=O)c1ccc2ccccc2c1 [Intermediate 61],–,–,–,205 °C (dec.),8.2,–,8.2
CNC(=C[N+](=O)[O-])NNc1ccnc2cc(Cl)ccc12 [compound 146],18.4,29.4,23.9,210 °C (dec.),–,–,–
CNC(=C[N+](=O)[O-])NN=Cc1ccccc1 [compound 18],18.3,26.6,22.5,159 to 160 °C,–,–,–
CNC(=C[N+](=O)[O-])NN=C(C)c1cccnc1 [compound 34],30.2,26.9,28.6,181 °C (dec.),–,–,–
CCOc1cc(C(F)(F)F)cc(NNC(=C[N+](=O)[O-])NC)n1 [compound 106],11.7,8.4,10.1,185 to 186 °C (dec.),–,–,–
CNC(=C[N+](=O)[O-])NNc1c([N+](=O)[O-])c(C)nn1C [Compound No. 30],11.3,17.5,14.4,164 °C (dec.),–,–,–
NNC(=C[N+](=O)[O-])Nc1ccc2c(c1)OCO2 [compound 110],35.2,29.3,32.3,177 to 180 °C (dec.),–,–,–
CNC(=C[N+](=O)[O-])NNc1ccccc1[N+](=O)[O-] [compound 11],31.9,33.7,32.8,194 °C (dec.),–,–,–
CNC(=C[N+](=O)[O-])NN=Cc1ccc([N+](=O)[O-])cc1 [compound 138],22.3,15.7,19,232 °C (dec.),–,–,–
Cc1ccc(NC(=C[N+](=O)[O-])NN)cc1 [compound 48],20.6,18.2,19.4,191 °C (dec.),–,–,–

SMILES,"IC50 [1, 2] [µM]","IC50 [1, 3] [µM]","IC50 [1, 4] [µM]",melting point,"IC50 [1, 5] [µM]","IC50 [1, 6] [µM]","IC50 [1, 7] [µM]"
CNC(=C[N+](=O)[O-])NNc1ccccn1 [compound 22],17.9,17.4,17.7,156 °C (dec.),–,–,–
CSC(=C[N+](=O)[O-])Nc1ccc([N+](=O)[O-])cc1 [Intermediate 11],–,–,–,180 °C,17.6,15.9,16.8
CNC(=C[N+](=O)[O-])NNc1ccc(OC)cc1 [compound 17],43.8,28.8,36.3,168 °C (dec.),–,–,–
NNC(=C[N+](=O)[O-])NCc1ccccc1 [compound 92],15.4,20.6,18,140 to 143 °C,–,–,–
CNC(=C[N+](=O)[O-])NN=Cc1ccc2ccccc2c1 [compound 135],28.2,20.4,24.3,190 °C (dec.),–,–,–
O=[N+]([O-])C=C(NCCCCO)NNc1cc(C(F)(F)F)cc(Cl)n1 [compound 199],5.7,6.2,6,150 to 151 °C,–,–,–
CNC(=C[N+](=O)[O-])NN=Cc1ncc(C(F)(F)F)cc1Cl [compound 179],8.3,–,8.3,171 °C (dec.),–,–,–
NNC(=C[N+](=O)[O-])NC1CCCCC1 [compound 86],41.8,41.5,41.7,196 °C (dec.),–,–,–
CCOc1ccc(NC(=C[N+](=O)[O-])NN)cc1 [compound 70],42.1,57.1,49.6,198 °C (dec.),–,–,–
CNC(=C[N+](=O)[O-])NNc1cc(C(F)(F)F)cc(OCC(F)(F)F)n1 [compound 181],11.6,–,11.6,180 °C (dec.),–,–,–
CCS(=O)(=O)NC(=C[N+](=O)[O-])NNc1cc(C(F)(F)F)cc(Cl)n1 [compound 161],6,–,6,114 to 119 °C (dec.),–,–,–
NNC(=C[N+](=O)[O-])NC1CC1 [compound 90],18.7,37.4,28,145 °C (dec.),–,–,–
CSC(=C[N+](=O)[O-])NC1CCCC1 [Intermediate 3],–,–,–,82 to 87.5 °C,21.3,37.3,29.3
CCCCOc1cc(C(F)(F)F)cc(NNC(=C[N+](=O)[O-])NC)n1 [compound 177],10.7,6.1,8.4,169 °C (dec.),–,–,–
CSC(=C[N+](=O)[O-])NS(=O)(=O)c1ccc(-c2ccccc2)cc1 [Intermediate 62],–,–,–,75 to 77 °C,4.5,–,4.5
CNC(=C[N+](=O)[O-])NNc1ccccc1C [compound 14],47.4,42.2,44.8,171 °C (dec.),–,–,–
CNC(=C[N+](=O)[O-])NNc1ncc(C(F)(F)F)cc1[N+](=O)[O-] [compound 96],24.5,21.3,22.9,165 to 167 °C (dec.),–,–,–
NNC(=C[N+](=O)[O-])NN1CCOCC1 [compound 67],56.9,43.1,50,187 °C (dec.),–,–,–
